Test results taken from patent US20200325178A1, “PEPTIDE NUCLEIC ACID MOLECULES FOR TREATMENT OF GRAM POSITIVE BACTERIAL INFECTION” (priority 2017, published 2020).

Test system: MSSA clinical isolates and ATCC strains
Test: MIC and MBC against MSSA clinical isolates and ATCC strains
Format: cell-based, Staphylococcus aureus
Design: MIC: unit not given here
Protocol: Bioscreen-C instrument was used to detect the MIC and MBC of PNA-CPP derivatives against S. aureus MSSA strains. Different concentrations of PNA-CPP derivatives were prepared in 10 mM of sodium bicarbonate buffer pH-7.4 and added to ˜5.0 Log 10 CFUs in a Honey comb Bioscreen-C plate.
After the growth curve assays, the number of colony forming units (CFU) were counted to determine the MIC and MBC of each PNA-CPP derivative against MSSA.
Minimum inhibitory concentration (MIC) analyses were performed as described in Clinical and Laboratory Standards Institute, Methods for Dilution Antimicrobial Susceptibility Tests for Bacteria that Grow Aerobically, 7th ed.; Approved Standard M7-A7; CLSI: Wayne, Pa., USA, 2006; volume 26, No. 2. Vancomycin and Oxacillin were used as controls. MIC was determined as the lowest concentration of agent that inhibits bacterial growth detected at A420-580 nm.

[1] = MSSA table, isolate MRSA#16 [sic]
[2] = MSSA table, isolate MRSA#25 [sic]
[3] = MSSA table, isolate MRSA#27 [sic]
[4] = MSSA table, isolate MRSA#34 [sic]
[5] = MSSA table, isolate MRSA#38 [sic]
[6] = MSSA table, isolate MRSA#57 [sic]
[7] = MSSA table, isolate MRSA#60 [sic]
[8] = MSSA table, isolate printed MRSA#49
[9] = MSSA table, isolate printed MRSA#61

In the case of “Compound I: PNA-CPP conjugate: PNA cgt cat acg cgg tcc (SEQ ID NO: 51), AEEA linker, CPP BXRXRRXRRXRRXR; FIG. 1 (CGTCATACGCGGTCC; all peptide nucleic acid (PNA); cell-penetrating peptide attached via AEEA linker, further chemistry not fully specified)”, the MBC [1] was 1.56/1.56 ∞g, the MIC [1] was 1.56/1.56 ∞g and the MBC [2] was 3.25 ∞g. For the same substance, the MIC [2] was 1.56 ∞g, the MBC [3] was 1.56 ∞g and the MIC [3] was 0.78 ∞g. For the same substance, the MBC [4] was 3.25/3.25 ∞g, the MIC [4] was 3.25/3.25 ∞g and the MBC [5] was 1.56/1.56 ∞g. The MIC [5] was 1.56/1.56 ∞g, the MBC (MSSA table, isolate MRSA#55) was 3.25 ∞g and the MIC (MSSA table, isolate MRSA#55) was 1.56 ∞g. For the same substance, the MBC [6] was 3.25 ∞g, the MIC [6] was 1.56 ∞g and the MBC [7] was 1.56 ∞g. For the same substance, the MIC [7] was 0.78 ∞g, the MBC [8] was 3.25 ∞g and the MIC [8] was 1.56 ∞g. The MBC [9] was 3.25/3.25 ∞g, the MIC [9] was 3.25/3.25 ∞g and the MBC (strain BAA 1721) was 3.25 ∞g. The MIC (strain BAA 1721) was 1.56 ∞g.
